Counter-ions that a name gives are not always drawn.
target: catalytic domain of human PARP14 (Homo sapiens (Human), UniProt Q460N5); test: Enzymatic assay for inhibition of PARP14 (DELFIA, auto-modification with biotin-NAD); assay type: biochemical; conditions: auto-modification of PARP14 by biotin-NAD, 50 nM PARP14, 3 μM biotin-NAD
Protocol: An N-terminal His-TEV fusion tag was used to purify the protein from cell lysates. The His-TEV tag was left on the protein for use in the enzymatic assay.
Enzymatic inhibition of PARP14 was measured using a dissociation-enhanced lanthanide fluorescence immunoassay (DELFIA) monitoring the auto-modification of PARP14 by biotinylated nicotinamide adenine dinucleotide (biotin-NAD). 1 μL of a dose response curve of each test compound was spotted in 384-well nickel-coated white microplates (Thermo) using a Mosquito (TTP Labtech). Reactions were performed in a 50 μL volume by adding 40 μL of PARP14 in assay buffer (20 mM HEPES pH==8, 100 mM NaCl, 0.1% bovine serum albumin, 2 mM DTT and 0.002%0 Tween20), incubating with test compound at 25° C. for 30 min, then adding 10 μL of biotin-NAD (Biolog). The final concentrations of PARP14 and biotin-NAD are 50 nM and 3 μM, respectively. Reactions proceeded at 25° C. for 3 h, then were quenched with 5 μL of 10 mM unmodified nicotinamide adenine dinucleotide (Sigma-Aldrich). The quenched reactions were washed 3 times with 100 μL of TBST wash buffer (50 mM Tris-HCl, 150 mM NaCl and 0.1% Tween20). Next, to the washed and dried plate was added 25 μL of DELFIA Europium-N1 streptavidin (Perkin Elmer) diluted in DELFIA assay buffer (Perkin Elmer). After a 30 min incubation at 25° C., the plate was washed 5 times with TBST wash buffer. Finally, 25 μL of DELFIA enhancement solution was added. After a 5 min incubation the plate was read on an Envision platereader equipped with a LANCE/DELFIA top mirror (Perkin Elmer) using excitation of 340 nm and emission of 615 nm to measure the amount of Europium present in each well, informing on the amount of biotin-NAD that was transferred in the automodification reaction.
[formula] where ex615cmpd is the emission from the compound treated well, ex615min is the emission from the rucaparib treated positive control well and ex615max is the emission from the DMSO treated negative control well.
The % inhibition values were plotted as a function of compound concentration and the following 4-parameter fit was applied to derive the IC50 values:
[formula] where top and bottom are normally allowed to float, but may be fixed at 100 or 0 respectively in a 3-parameter fit. The Hill Coefficient is normally allowed to float but may also be fixed at 1 in a 3-parameter fit. Y is the % inhibition and X is the compound concentration.

Sequence of catalytic domain of human PARP14 (Q460N5 1611-1801): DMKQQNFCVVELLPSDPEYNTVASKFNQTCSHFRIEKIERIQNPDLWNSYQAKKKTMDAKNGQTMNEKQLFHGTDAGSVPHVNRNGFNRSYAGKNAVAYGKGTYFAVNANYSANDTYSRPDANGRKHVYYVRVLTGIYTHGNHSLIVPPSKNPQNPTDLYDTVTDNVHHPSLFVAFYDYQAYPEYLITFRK

Compared with `O=c1[nH]c(CSC2CCOCC2)nc2c(F)c(F)ccc12` [Example 45, 7,8-Difluoro-2-(((tetrahydro-2H-pyran-4-yl)thio)methyl)quinazolin-4(3H)-one], `Nc1ccc2c(=O)[nH]c(CSC3CCOCC3)nc2c1` [Example 74, 7-Amino-2-(((tetrahydro-2H-pyran-4-yl)thio)methyl)quinazolin-4(3H)-one] is higher in IC50: 1000 to 10000 nM for the first, greater than 10000 nM for the second. The first is the more potent here.

First: O=c1[nH]c(CS[C@H]2CC[C@H](O)CC2)nc2cc(F)ccc12 [Example 46, 7-Fluoro-2-((((trans)-4-hydroxycyclohexyl)thio)methyl)quinazolin-4(3H)-one]
Second: Cc1ccc(F)c2c(=O)[nH]c(CSC3CCC(O)CC3)nc12 (centres unmarked) [Example 56, 5-Fluoro-2-(((4-hydroxycyclohexyl)thio)methyl)-8-methylquinazolin-4(3H)-one]
The IC50 of the first is higher: 1000 to 10000 nM for the first, less than 1000 nM for the second. The second is the more potent here.

`Cc1cccc2c(=O)[nH]c(CS[C@H]3C[C@H](O)C3)nc12` [Example 47, 2-(((trans-3-Hydroxycyclobutyl)thio)methyl)-8-methylquinazolin-4(3H)-one] and `Cc1cccc2c(=O)[nH]c(CS[C@H]3C[C@H](N)C3)nc12` [Example 52, 2-(((trans-3-Aminocyclobutyl)thio)methyl)-8-methylquinazolin-4(3H)-one Hydrochloride] fall in the same range of IC50: 1000 to 10000 nM for the first, 1000 to 10000 nM for the second.

First: Cc1cccc2c(=O)[nH]c(CSC3CCCNC3)nc12 (centres unmarked) [Example 48, 8-Methyl-2-((piperidin-3-ylthio)methyl)quinazolin-4(3H)-one Hydrochloride]
Second: Cc1cccc2c(=O)[nH]c(CSC3CCCC(N)CC3)nc12 (centres unmarked) [Example 53, 2-(((4-Aminocycloheptyl)thio)methyl)-8-methylquinazolin-4(3H)-one Trifluoroacetate]
The IC50 of the first is higher: 1000 to 10000 nM for the first, less than 1000 nM for the second.

`Cc1cccc2c(=O)[nH]c(CS[C@H]3CC[C@H](N)CC3)nc12` [Example 49, 2-(((trans-4-Aminocyclohexyl)thio)methyl)-8-methylquinazolin-4(3H)-one Hydrochloride] and `Cc1cccc2c(=O)[nH]c(CS[C@H]3CC[C@@H](N)CC3)nc12` [Example 50, 2-(((cis-4-Aminocyclohexyl)thio)methyl)-8-methylquinazolin-4(3H)-one Trifluoroacetic Acid] fall in the same range of IC50: 1000 to 10000 nM for the first, 1000 to 10000 nM for the second.

`Cc1ccc(F)c2c(=O)[nH]c(CSC3CCNCC3)nc12` [Example 51, 5-Fluoro-8-methyl-2-((piperidin-4-ylthio)methyl)quinazolin-4(3H)-one Hydrochloride] and `Cc1ccc(F)c2c(=O)[nH]c(CS[C@H]3CC[C@H](O)CC3)nc12` [Example 57, 5-Fluoro-2-(((trans-4-hydroxycyclohexyl)thio)methyl)-8-methylquinazolin-4(3H)-one] cannot be ordered by IC50: less than 1000 nM for the first, less than 1000 nM for the second.

`Cc1ccc(F)c2c(=O)[nH]c(CS[C@H]3CC[C@@H](O)CC3)nc12` [Example 58, 5-Fluoro-2-(((cis-4-hydroxycyclohexyl)thio)methyl)-8-methylquinazolin-4(3H)-one] and `Cc1ccc(C(F)(F)F)c2c(=O)[nH]c(CSC3CCC(O)CC3)nc12` (centres unmarked) [Example 59, 2-(((4-Hydroxycyclohexyl)thio)methyl)-8-methyl-5-(trifluoromethyl)quinazolin-4(3H)-one] cannot be ordered by IC50: less than 1000 nM for the first, less than 1000 nM for the second.

`Cc1ccc(C(F)(F)F)c2c(=O)[nH]c(CS[C@H]3CC[C@H](O)CC3)nc12` [Example 60, 2-(((trans-4-Hydroxycyclohexyl)thio)methyl)-8-methyl-5-(trifluoromethyl) quinazolin-4(3H)-one] and `Cc1ccc(C(F)(F)F)c2c(=O)[nH]c(CS[C@H]3CC[C@@H](O)CC3)nc12` [Example 61, 2-(((cis-4-Hydroxycyclohexyl)thio)methyl)-8-methyl-5-(trifluoromethyl) quinazolin-4(3H)-one] cannot be ordered by IC50: less than 1000 nM for the first, less than 1000 nM for the second.

First: Cc1cccc2c(=O)[nH]c(CS[C@H]3CC[C@H](CO)CC3)nc12 [Example 62, 2-(((trans-4-(Hydroxymethyl)cyclohexyl)thio)methyl)-8-methylquinazolin-4(3H)-one]
Second: Cc1cccc2c(=O)[nH]c(CS[C@H]3CC[C@@H](CO)CC3)nc12 [Example 63, 2-(((cis-4-(Hydroxymethyl)cyclohexyl)thio)methyl)-8-methylquinazolin-4(3H)-one]
The IC50 of the first is lower: less than 1000 nM for the first, 1000 to 10000 nM for the second. The first is the more potent here.

First: Cc1cccc2c(=O)[nH]c(CSC3CCC(CN)CC3)nc12 (centres unmarked) [Example 64, 2-(((4-(Aminomethyl)cyclohexyl)thio)methyl)-8-methylquinazolin-4(3H)-one Trifluoroacetate]
Second: Cc1cccc2c(=O)[nH]c(CS[C@H]3CC[C@@H](CN)CC3)nc12 [Example 65, 2-(((cis-4-(Aminomethyl)cyclohexyl)thio)methyl)-8-methylquinazolin-4(3H)-one Trifluoroacetate]
The IC50 of the first is lower: less than 1000 nM for the first, 1000 to 10000 nM for the second.

`Cc1cccc2c(=O)[nH]c(CS[C@H]3CC[C@H](CN)CC3)nc12` [Example 66, 2-(((trans-4-(Aminomethyl)cyclohexyl)thio)methyl)-8-methylquinazolin-4(3H)-one Trifluoroacetate] and `CNC[C@H]1CC[C@H](SCc2nc3c(C)cccc3c(=O)[nH]2)CC1` [Example 73, 8-Methyl-2-(((trans-4-((methylamino)methyl)cyclohexyl)thio)methyl) quinazolin-4(3H)-one] cannot be ordered by IC50: less than 1000 nM for the first, less than 1000 nM for the second.

Compared with `Cc1cccc2c(=O)[nH]c(CSC3CCC(CN(C)C)CC3)nc12` (centres unmarked) [Example 67, 2-(((4-((Dimethylamino)methyl)cyclohexyl)thio)methyl)-8-methylquinazolin-4(3H)-one trifluoroacetate], `Cc1cccc2c(=O)[nH]c(CS[C@H]3CC[C@@H](CN(C)C)CC3)nc12` [Example 68, 2-(((cis-4-((Dimethylamino)methyl)cyclohexyl)thio)methyl)-8-methyl quinazolin-4(3H)-one Trifluoroacetate] is higher in IC50: less than 1000 nM for the first, 1000 to 10000 nM for the second.

Compared with `Cc1cccc2c(=O)[nH]c(CS[C@H]3CC[C@H](CN(C)C)CC3)nc12` [Example 69, 2-(((trans-4-((Dimethylamino)methyl)cyclohexyl)thio)methyl)-8-methyl quinazolin-4(3H)-one Trifluoroacetate], `CC(=O)Nc1ccc2c(=O)[nH]c(CSC3CCOCC3)nc2c1` [Example 75, N-(4-Oxo-2-(((tetrahydro-2H-pyran-4-yl)thio)methyl)-3,4-dihydroquinazolin-7-yl)acetamide] is higher in IC50: less than 1000 nM for the first, greater than 10000 nM for the second. The first is the more potent here.

First: O=C(Nc1ccc2c(=O)[nH]c(CSC3CCOCC3)nc2c1)c1ccccc1 [Example 76, N-(4-Oxo-2-(((tetrahydro-2H-pyran-4-yl)thio)methyl)-3,4-dihydroquinazolin-7-yl)benzamide]
Second: O=C(Nc1ccccc1)c1ccc2c(=O)[nH]c(CSC3CCOCC3)nc2c1 [Example 78, 4-Oxo-N-phenyl-2-(((tetrahydro-2H-pyran-4-yl)thio)methyl)-3,4-dihydro Quinazoline-7-carboxamide]
The IC50 of the first is lower: 1000 to 10000 nM for the first, greater than 10000 nM for the second.

First: CNC(=O)c1ccc2c(=O)[nH]c(CSC3CCOCC3)nc2c1 [Example 77, N-Methyl-4-oxo-2-(((tetrahydro-2H-pyran-4-yl)thio)methyl)-3,4-dihydro Quinazoline-7-carboxamide]
Second: O=c1[nH]c(CSC2CCOCC2)nc2cc(Nc3ccccc3)ccc12 [Example 79, 7-(Phenylamino)-2-(((tetrahydro-2H-pyran-4-yl)thio)methyl)quinazolin-4(3H)-one]
The IC50 of the first is higher: greater than 10000 nM for the first, less than 1000 nM for the second. The second is the more potent here.

First: O=c1[nH]c(CSC2CCOCC2)nc2cc(Nc3cccnc3)ccc12 [Example 80, 7-(Pyridin-3-ylamino)-2-(((tetrahydro-2H-pyran-4-yl)thio)methyl)quinazolin-4(3H)-one]
Second: O=c1[nH]c(CSC2CCOCC2)nc2cc(Nc3ccccn3)ccc12 [Example 81, 7-(Pyridin-2-ylamino)-2-(((tetrahydro-2H-pyran-4-yl)thio)methyl)quinazolin-4(3H)-one]
The IC50 of the first is lower: less than 1000 nM for the first, 1000 to 10000 nM for the second. The first is the more potent here.

`COc1ccc(Nc2ccc3c(=O)[nH]c(CSC4CCOCC4)nc3c2)cc1` [Example 82, 7-((4-Methoxyphenyl)amino)-2-(((tetrahydro-2H-pyran-4-yl)thio)methyl)quinazolin-4(3H)-one] and `COc1cccc(Nc2ccc3c(=O)[nH]c(CSC4CCOCC4)nc3c2)c1` [Example 83, 7-((3-Methoxyphenyl)amino)-2-(((tetrahydro-2H-pyran-4-yl)thio)methyl)quinazolin-4(3H)-one] fall in the same range of IC50: 1000 to 10000 nM for the first, 1000 to 10000 nM for the second.

`COc1ccccc1Nc1ccc2c(=O)[nH]c(CSC3CCOCC3)nc2c1` [Example 84, 7-((2-Methoxyphenyl)amino)-2-(((tetrahydro-2H-pyran-4-yl)thio)methyl)quinazolin-4(3H)-one] gave an IC50 of 1000 to 10000 nM.

Source: patent US10562891B2, “Quinazolinones as PARP14 inhibitors” (Ribon Therapeutics Inc., priority 2017, dated 2020)
